Common to all, as to type: cell-based
Assay [1] deals with Staphylococcus aureus and/or Staphylococcus epidermidis. Briefly: MIC summary statement, staphylococci. The conditions noted are these: generally, for Staphylococcus aureus and/or Staphylococcus epidermidis. In short, it runs like this: (§1)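 Minimal inhibitory concentration is the read-out: serial dilutions in cation-adjusted Mueller-Hinton broth, per CLSI, are inoculated and held 20 to 24 h at 35° C in ambient air, then inspected on a lit magnifying reader.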

For assay [2], the system named is Staphylococcus aureus and/or Staphylococcus epidermidis and/or Streptococcus pneumoniae. Briefly: MIC summary statement, staphylococci and pneumococci. The conditions noted are these: generally, for Staphylococcus aureus and/or Staphylococcus epidermidis and/or Streptococcus pneumoniae. Here is the method:
(§2) Anti-Microbial Activity Assay.
(§3) The antibacterial activity of compounds is determined by the minimal inhibitory concentration (MIC) method. MICs for all bacteria except pneumococci and Haemophilus influenzae are obtained by broth microdilution with cation-adjusted Mueller-Hinton broth (CAMHB; BBL), according to CLSI guidelines (National Committee for Clinical Laboratory Standards. 2003. Methods for dilution antimicrobial susceptibility tests for bacteria that grow aerobically, 5th ed.; approved standard M7-A6. National Committee for Clinical Laboratory Standards, Wayne, Pa.), with the following modifications: (i) for pneumococci CAMHB is supplemented with 5% (^v/v) horse serum; (ii) for Haemophilus influenzae CAMHB is supplemented with 5% (^v/v) Fildes enrichment (BBL) (Pankuch, G. A., Hoellman, D. B., Lin, G., Bajaksouzian, S., Jacobs, M. R., and Appelbaum, P. C. 1998. Activity of HMR 3647 compared to those of five agents against Haemophilus influenzae and Moraxella catarrhalis by MIC determination and time-kill assay. Antimicrob. Agents Chemother. 42:3032-3034). Microtiter plates are incubated at 35° C. in ambient air for 20 to 24 h, then inspected using an illuminated microtiter plate reader fitted with a magnifying mirror (MIC 2000; Cooke Laboratory Products, Alexandria, Va.). Compounds of the present invention are tested against several bacteria strains comprising some Acinetobacter baumannii, Enterococcus faecalis, Enterococcus faecitan, Escherichia coli, Haemophilus influenzae, Klebsiella pneumoniae, Pseudomonas aeruginosa, Staphylococcus aureus, Staphylococcus epidermidis and Streptococcus pneumoniae.

For assay [3], the system named is Escherichia coli. Description: Anti-microbial activity assay, MIC by broth microdilution. To be noted: Escherichia coli; strain UB1005; read-out: MIC Escherichia coli UB1005. An outline of the steps:
as §1

The subject of assay [4] is Staphylococcus aureus. The assay is described as above. To be noted: Staphylococcus aureus; strain ATCC29213; read-out: MIC Staphylococcus aureus ATCC29213. In short, it runs like this: as §1
Assay [5] concerns Staphylococcus epidermidis. Described as above. The conditions noted are these: Staphylococcus epidermidis; strain ATCC14990. An outline of the steps:
as §1

In assay [6] the test system is Streptococcus pneumoniae. Description: Anti-microbial activity assay, MIC by broth microdilution (CAMHB with 5% horse serum). To be noted: Streptococcus pneumoniae; strain ATCC49619; CAMHB with 5% horse serum; read-out: MIC Streptococcus pneumoniae ATCC49619. An outline of the steps: as §1
Assay [7] concerns Staphylococcus aureus and/or Staphylococcus epidermidis and/or Streptococcus pneumoniae and/or Escherichia coli. Description: MIC summary statement, staphylococci, pneumococci and E. coli. The conditions noted are these: generally, for S. aureus and/or S. epidermidis and/or S. pneumoniae and/or E. coli; in most case of less than 2 mg/L. Here is the method:
as §2, §3

Values after ≈ are worked out from the molar mass of the structure shown.

`COc1ccc2ncc(SCCN3CCC(NCc4ccc5c(n4)NC(=O)CO5)CC3)nc2c1` [Example 45, 6-({1-[2-(7-methoxy-quinoxalin-2-ylsulfanyl)-ethyl]-piperidin-4-ylamino}-methyl)-4H-pyrido[3,2-b][1,4]oxazin-3-one]: the MIC in assay [1], in assay [2], in assay [3], in assay [4], in assay [5] and in assay [6] was at most 2 µg/mL in each case. Moreover, the MIC in assay [7] is at most 4 µg/mL.
For `COc1ccc2ncc(SCCN3CCC(NCc4ccc5c(c4)NC(=O)CS5)CC3)nc2c1` [Example 46, 6-({1-[2-(7-methoxy-quinoxalin-2-ylsulfanyl)-ethyl]-piperidin-4-ylamino}-methyl)-4H-benzo[1,4]thiazin-3-one], the MIC in assay [1], in assay [2], in assay [3], in assay [4], in assay [5] and in assay [6] was at most 2 µg/mL in each case. For the same compound, the MIC in assay [7] was at most 4 µg/mL.
Regarding `COc1ccc2ncc(SCCN3CCC(NCc4cc5c(cc4Cl)SCC(=O)N5)CC3)nc2c1` [Example 48, 7-chloro-6-({1-[2-(7-methoxy-quinoxalin-2-ylsulfanyl)-ethyl]-piperidin-4-ylamino}-methyl)-4H-benzo[1,4]thiazin-3-one], the MIC in assay [1], in assay [2], in assay [3], in assay [4], in assay [5] and in assay [6] was at most 2 µg/mL each time. The same compound displayed a minimal inhibitory concentration (MIC) in assay [7] of at most 4 µg/mL.
Consider `COc1ccc2ncc(SCCN3CCC(NCc4cc5c(cc4Cl)SCCN5)CC3)nc2c1` [Example 49, (7-chloro-3,4-dihydro-2H-benzo[1,4]thiazin-6-ylmethyl)-{1-[2-(7-methoxy-quinoxalin-2-ylsulfanyl)-ethyl]-piperidin-4-yl}-amine], for which the MIC in assay [1] is at most 2 µg/mL; in assay [2], at most 2 µg/mL; in assay [3] it was 4 µg/mL (≈ 7.75 µM); in assay [4] it was at most 2 µg/mL; in assay [5], at most 2 µg/mL; in assay [6], at most 2 µg/mL. This compound displayed an MIC in assay [7] of at most 4 µg/mL.
With `COc1ccc2ncc(SCCN3CCC(NC(=O)c4ccc5c(n4)NC(=O)CS5)CC3)nc2c1` [Example 50, 3-oxo-3,4-dihydro-2H-pyrido[3,2-b][1,4]thiazine-6-carboxylic acid {1-[2-(7-methoxy-quinoxalin-2-ylsulfanyl)-ethyl]-piperidin-4-yl}-amide], the MIC is at most 2 µg/mL in assay [1]; at most 2 µg/mL in assay [2]; 4 µg/mL (≈ 7.83 µM) in assay [3]; at most 2 µg/mL in assay [4]; at most 2 µg/mL in assay [5]; at most 2 µg/mL in assay [6]. This compound also yielded an MIC in assay [7] of at most 4 µg/mL.
As to `COc1ccc2ncc(SCCN3CCC(NC(=O)c4ccc5c(c4)NC(=O)CS5)CC3)cc2c1` [Example 53, 3-oxo-3,4-dihydro-2H-benzo[1,4]thiazine-6-carboxylic acid {1-[2-(6-methoxy-quinolin-3-ylsulfanyl)-ethyl]-piperidin-4-yl}-amide], the minimal inhibitory concentration (MIC) is at most 2 µg/mL in assay [1]; at most 2 µg/mL in assay [2]; 4 µg/mL (≈ 7.86 µM) in assay [3]; at most 2 µg/mL in assay [4]; at most 2 µg/mL in assay [5]; at most 2 µg/mL in assay [6]. This compound came in with an MIC in assay [7] of at most 4 µg/mL.

The record behind these values is US9133219B2, “Bicyclic antibiotics” (Basilea Pharmaceutica AG, priority 2009, dated 2015).
